In one data set the target is human p38 MAPK α (Homo sapiens (Human), UniProt Q16539). Kind of data set: Evaluation of p38 MAPK inhibitory activity (Alpha Screen, ATF2 phosphorylation). Type of data set: biochemical. As to conditions: p38α/SAPK2a 1.5 nM, ATP 100 μM, biotinylated ATF2 30 nM. As for the experimental part:
Using human p38 MAPK α, the p38 MAPK inhibitory activity of Compound (I) was studied by a method partially modified from the method described in Current Medicinal Chemistry (2004, No. 11, pp. 721-730).
A solution of each test compound solution in 100% DMSO and a p38α/SAPK2a solution (Final Concentration: 1.5 nM) (Invitrogen) were added to a 384-well plate, and then the plate was incubated at room temperature in a dark place for 1 hour. Thereafter, ATP (Final Concentration: 100 μM), which is a phosphate donor, and biotinylated ATF2 (Final Concentration: 30 nM) (upstate), which is a substrate, were added, and the resulting mixture was allowed to react at room temperature in a dark place for 1 hour (the final concentration of DMSO was 0.25%). After the reaction, an anti-phosphorylated ATF2 antibody (Final Concentration: 1 nM) (Cell Signaling), anti-IgG acceptor beads (Final Concentration: 20 μg/mL) (PerkinElmer) and streptavidin donor beads (Final Concentration: 20 μg/mL) (PerkinElmer) were added, and the resultant was incubated at room temperature in a dark place for 1 hour. Using a microplate analyzer (Fusion-α, Packard) in Alpha Screen method (Amplified Luminescent Proximity Homogeneous Assay), the light emission was detected. The IC50 value of each compound was calculated by sigmoidal dose-response regression using Prism 4.02 (GraphPad Software, Inc.).

Data set [1] has as its system TNFα production. Kind of data set: Cytokine production suppressing activity using human whole blood (LPS stimulation). It is filed as cell-based. The note with it: LPS 200 ng/mL, 37° C., 5 hours. As for the experimental part: Using human whole blood, the inhibitory action of Compound (I) on the TNFα production by LPS stimulation was studied by a method partially modified from the method described in Journal of Medicinal Chemistry (2003, Vol. 46, pp. 4676-4686).
A solution of each test compound in 100% DMSO and human blood were mixed in a 96-well flat-bottom plate. Thereafter, LPS (Final Concentration: 200 ng/mL) was added, and the resulting mixture was allowed to react at 37° C. for 5 hours (the final concentration of DMSO was 0.2%). After the reaction, the resultant was centrifuged for 20 minutes at room temperature, and the supernatant was collected. For the measurement of the TNFα amount in the supernatant, a human cytokine kit (CIS bio international) was used. As a comparative control compound, Comparative Compound 2 was used.

For data set [2], the system named is skin swelling response in type I allergic dermatitis model. Kind of data set: Skin swelling response in type I allergic dermatitis model. The note with it: BALB/c mouse, 20 μL of 0.5 w/v % solution applied to auricle 1 hour before induction. Type of data set: in vivo. From the text: (§1) The action of Compound (I) on skin swelling response in mouse allergic dermatitis models was studied. As the allergic dermatitis models, models partially modified from a type I allergic dermatitis model and a type IV allergic dermatitis model described in documents (Inflamm. Res., 1998, Vol. 47, pp. 506-511 and Int. Arch. Allergy. Appl. Immunol., 1990, Vol. 92, pp. 356-360) were used.
To each BALB/c mouse (female, 7-week old, Charles River Laboratories Japan, Inc.), mouse IgE anti-DNP antibody (0.05 mg/body, […] CORPORATION) was intravenously administered to passively sensitize the mouse. Twenty four hours after the sensitization, 20 μL of 0.38% DNFB (SIGMA) dissolved in acetone:olive oil (4:1) was applied to the auricle of the mouse to induce inflammation. From after the induction to 24 hours, the thickness of the auricle was measured with time using a Digimatic Indicator (Mitutoyo). Each test compound was dissolved in ethanol, and 20 μL of 0.5 w/v % solution was applied to the auricle at 1 hour before the induction.
The swelling ratio of the auricle was calculated according to the following equation. […] Auricular Swelling Ratio(%)=(A−B)/B×100

Data set [3] has as its system skin swelling response in type IV allergic dermatitis model. Kind of data set: Skin swelling response in type IV allergic dermatitis model. Type of data set: in vivo. As to conditions: BALB/c mouse, 24 hours after induction. As for the experimental part: as §1
To the back of each BALB/c mouse (female, 7-week old, Charles River Laboratories Japan, Inc.), 25 μL of 0.5% DNFB solution dissolved in acetone:olive oil (4:1) was applied. On the next day, the same operations were repeated to actively sensitize the mouse. Four days after the sensitization, 20 μL of 0.2% DNFB solution dissolved in acetone:olive oil (4:1) was applied to the auricle of the sensitized mouse to induce inflammation. Twenty four hours after the induction, the thickness of the auricle was measured using a Digimatic Indicator (Mitutoyo). Each test compound was dissolved in ethanol and 20 μL of 0.5 w/v % solution was applied to the auricle at 1 hour before the induction; or each test compound was suspended in 0.5% methylcellulose (Wako Pure Chemical Industries, Ltd.) and the resulting solution was orally administered at 30 mg/kg at 1 hour before the induction. The swelling ratio of the auricle was calculated according to the following equation: Auricular Swelling Ratio(%)=(A−B)/B×100

The test system of data set [4] is colonic disorders in TNBS-induced colitis model. In words: Colonic disorders in TNBS-induced colitis model. The note with it: Wistar rat, oral 3 mg/kg once on TNBS day then twice a day for 4 days, colon 5 days after TNBS. Type of data set: in vivo. From the text: (§2) The action of Compound (I) on colonic disorders in inflammatory bowel disease models was studied. As the inflammatory bowel disease models, models partially modified from a TNBS-induced colitis model and a DSS-induced chronic colitis model described in documents (Gastroenterology, 1989, Vol. 96, pp. 29-36 and Am. J. Physiol. Gastrointest. Liver Physiol., 2004, Vol. 287, pp. G115-124) were used.
To each Slc:Wistar rat (male, 12-week old, Japan SLC, Inc.), TNBS (Wako Pure Chemical Industries, Ltd.) dissolved in ethanol was rectally administered under anesthesia, and the TNBS solution was held in the rectum for 1 hour to produce the colitis model. These rats had been fasted from 2 days before the TNBS administration to the day of the TNBS administration. Five days after the TNBS administration, the colon was isolated from the each rat, and the macroscopic damage score (which is a total of adhesion score, diarrhea score and ulcer score) was recorded as an index of damage in the colon. The macroscopic damage score was calculated based on the scores of Dubigeon et al. (Eur. J. Pharmacol., 2001, Vol. 431, pp. 103-110) and the scores of Venkova et al. (J. Pharmacol. Exp. Ther., 2004, Vol. 308, pp. 206-213). […]

Data set [5] has as its system colonic disorders in DSS-induced chronic colitis model. Kind of data set: Colonic disorders in DSS-induced chronic colitis model. Type of data set: in vivo. The note with it: BALB/c mouse, oral 10 mg/kg once Day 27, twice a day Day 28-31; scores Day 28-32.
Source text: as §2
To each BALB/cCrSlc mouse (female, 9-week old, Japan SLC, Inc.), DSS (Molecular Weight: 36-50 kDa; MP Biomedicals) dissolved in sterile ultrapure water was administered via free drinking for 5 days from the day of the start of the administration via drinking water (this day was considered as Day 0 after the start of the administration via drinking water), and then switched to administration of sterile ultrapure water via free drinking for 5 days. This cycle was repeated again, and DSS was further administered via free drinking for another 7 days to produce the colitis model. As an index of colitis symptoms, stool consistency scores were used. The stool consistency scores were based on the following criteria: normal stool was defined as score 0; loose stool was defined as score 2; and diarrhea was defined as score 4. […]

In data set [6] the test system is TNFα production. In words: Mouse LPS-induced cytokine production model. Type of data set: in vivo. As to conditions: BALB/c mouse, 50 mg/kg oral 30 minutes before LPS 1 mg/kg i.p., serum 60 minutes after LPS. As for the experimental part:
The action of Compound (I) on the TNFα production induced by LPS administration in a mouse was studied by a method partially modified from the method described in Journal of Immunology (1992, Vol. 148, pp. 1890-1897).
To each BALB/c mouse (male, 7 to 9-week old, Charles River Laboratories Japan, Inc.), LPS (0111:B4, SIGMA) was intraperitoneally administered at a dose of 1 mg/kg. Sixty minutes after the LPS administration, blood was collected from the abdominal vena cava under anesthesia and centrifuged for 15 minutes at 4° C. to obtain a serum. For the measurement of TNF-α in the serum, ELISA Development System (R&D Systems) was used. Each test compound was dissolved in DMSO (Final Concentration: 2%), and then the obtained solution was dissolved in a 27% aqueous solution of 2-hydroxypropyl-β-cyclodextrin (hereinafter referred to as “HP-β-CD”; Nihon Shokuhin Kako Co., Ltd.). Thirty minutes before the LPS administration, the resulting solution was orally administered at 50 mg/kg.

Data set [7] can be described thus: Metabolic stability in human CYP (human liver microsomes). It is filed as in vitro ADME. The note with it: human liver microsomes 0.5 mg/mL, NADPH, 37° C., comparative control compounds 5 μM. On the procedure: Each test compound was mixed at a concentration of 2 μM with a phosphate buffer solution containing Human liver microsomes (Xenotech) in an amount of 0.5 mg/mL. Thereafter, NADPH was added thereto, and the obtained mixture was allowed to react at 37° C. for up to 30 minutes. The reaction was terminated by adding acetonitrile, and then the resultant was centrifuged for 10 minutes at 4° C. to collect a supernatant. The supernatant was pretreated by methanol extraction method, and the concentration of the compound was analyzed by LC/MS/MS (ESI positive mode). The compound remaining rate was calculated from the obtained concentration of the compound.

Data set [8] relates to hyperalgesia in Bennett model. Kind of data set: Hyperalgesia in neuropathic pain model (Bennett model), plantar test. It is filed as in vivo. The note with it: SD rat, Bennett model day 14, oral 100 mg/kg, 90 minutes after administration; FIG. 2. From the text:
The action of Compound (I) on hyperalgesia in pain models was studied. As the pain models, models partially modified from an inflammatory pain model (a carrageenin paw edema pain model) and neuropathic pain models (Bennett model and Chung model) described in documents (Anesth. Analg., 2009, Vol. 108, pp. 1680-1687; Pain, 1988, Vol. 33, pp. 87-107; and Pain, 1992, Vol. 50, pp. 355-363) were used.
The Bennett model was produced by lightly ligating the sciatic nerve in the left thigh of each Crl:CD (SD) rat (male, 6-week old, Charles River Laboratories Japan, Inc.) at 4 points with chromic catgut (4-0). Fourteen days after the Bennett model was produced, each test compound was orally administered, and plantar test was performed 90 minutes after the administration. The plantar test was carried out by measuring the pain threshold (sec) of the left footpad (model foot) using a plantar thermal stimulation device (Plantar test 7370, Ugo Basile) wherein the thermal stimulus intensity was set to 60. Each test compound was suspended in 0.5 w/v % methylcellulose (Wako Pure Chemical Industries, Ltd.) and the obtained solution was orally administered. Compound 46b described in the Examples was administered at a dose of 100 mg/kg, and gabapentin (Toronto Research Chemicals), which is an anticonvulsant, was administered as a comparative control agent at a dose of 100 mg/kg.

Chain of human p38 MAPK α (Q16539 whole entry): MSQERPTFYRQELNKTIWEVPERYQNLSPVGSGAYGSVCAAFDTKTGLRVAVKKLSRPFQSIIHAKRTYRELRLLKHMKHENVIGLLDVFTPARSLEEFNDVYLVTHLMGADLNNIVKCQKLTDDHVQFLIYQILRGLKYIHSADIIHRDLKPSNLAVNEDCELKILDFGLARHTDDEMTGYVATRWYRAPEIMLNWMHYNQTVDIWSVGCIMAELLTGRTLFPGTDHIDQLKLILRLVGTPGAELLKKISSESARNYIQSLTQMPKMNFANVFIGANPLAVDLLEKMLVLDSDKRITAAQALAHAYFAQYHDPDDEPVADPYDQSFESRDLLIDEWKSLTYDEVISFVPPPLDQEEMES

Consider `COc1c(NC(=O)N[C@H]2Cc3c(F)cccc3[C@H]2O)cc(C(C)(C)C)cc1[C@@H](O)C(F)(F)F` (single isomer, unassigned) [Compound 50b], for which the IC50 worked out at 35 nM against human p38 MAPK α and 46 nM in the data set with TNFα production [1]. Besides, in [2], the “suppression ratio on immediate response (auricular swelling AUC 0-4 hours)” value was found to be 33.4%. Further, the “suppression ratio on late response (auricular swelling AUC 5-10 hours)” value in data set [2] is 50.2%. In addition, the “suppression ratio of auricular swelling, oral administration” value in data set [3] (30 mg/kg oral 1 hour before induction) was found to be 54.4%. Also, the “suppression ratio of auricular swelling, auricular application” value in [3] (20 μL of 0.5 w/v % solution on auricle 1 hour before induction) is on record as 48.0%. In addition, the macroscopic damage score in [4] stood at 5.2±1.1. Further, in data set [5], the “stool consistency score (total)” value is recorded as 6.5±0.6.

As for `COc1c(NC(=O)N[C@@H]2Cc3ccccc3[C@@H]2O)cc(C(C)(C)C)cc1C(C)(C)C#N` [Comparative Compound 3, 1-(5-tert-butyl-3-(2-cyanopropan-2-yl)-2-methoxyphenyl)-3-((1S,2R)-1-hydroxy-2,3-dihydro-1H-indene-2-yl)urea, reference compound], the “Suppression Ratio of TNFα production” value in the data set on TNFα production [6] is recorded as 17.0%. Further, the microsomal CLint at 5 μM in data set [7] is 450 µL/min/mg.

For the compound `NCC1(CC(=O)O)CCCCC1` [gabapentin, reference compound], in data set [8], the “pain threshold (sec), plantar test, compared to solvent-administered group” value is on record as “significant difference”.

Values taken from patent US8653304B2, “2,3-dihydro-1H-indene-2-yl urea derivative and pharmaceutical application of same” (Toray Industries, Inc., priority 2009, dated 2014).
